Results taken from patent publication US11981658B2, “Substituted aminopyridine compounds as EGFR inhibitors” (YUHAN CORPORATION, priority 2021, dated 2024).
Like-named read-outs stand apart in the source and are kept apart here.

Key:
[1] = molecular target: EGFR Del19/T790M/C797S (Homo sapiens, UniProt P00533, C797S/DEL746-750/T790M); experiment: Biochemical EGFR kinase inhibition assay (Lance Ultra TR-FRET), triple mutant del19/T790M/C797S
Method in brief: (§1)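 Enzyme reactions lasted 1 hour at room temperature with test compounds between 0.003 and 10 μM, followed by 10 mM EDTA quench.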

[2] = molecular target: EGFR L858R/T790M/C797S (Homo sapiens, UniProt P00533, C797S/L858R/T790M); experiment: Biochemical EGFR kinase inhibition assay (Lance Ultra TR-FRET), triple mutant L858R/T790M/C797S
EGFR L858R/T790M/C797S, sequence (P00533 25-1210 T790M/C797S/L858R): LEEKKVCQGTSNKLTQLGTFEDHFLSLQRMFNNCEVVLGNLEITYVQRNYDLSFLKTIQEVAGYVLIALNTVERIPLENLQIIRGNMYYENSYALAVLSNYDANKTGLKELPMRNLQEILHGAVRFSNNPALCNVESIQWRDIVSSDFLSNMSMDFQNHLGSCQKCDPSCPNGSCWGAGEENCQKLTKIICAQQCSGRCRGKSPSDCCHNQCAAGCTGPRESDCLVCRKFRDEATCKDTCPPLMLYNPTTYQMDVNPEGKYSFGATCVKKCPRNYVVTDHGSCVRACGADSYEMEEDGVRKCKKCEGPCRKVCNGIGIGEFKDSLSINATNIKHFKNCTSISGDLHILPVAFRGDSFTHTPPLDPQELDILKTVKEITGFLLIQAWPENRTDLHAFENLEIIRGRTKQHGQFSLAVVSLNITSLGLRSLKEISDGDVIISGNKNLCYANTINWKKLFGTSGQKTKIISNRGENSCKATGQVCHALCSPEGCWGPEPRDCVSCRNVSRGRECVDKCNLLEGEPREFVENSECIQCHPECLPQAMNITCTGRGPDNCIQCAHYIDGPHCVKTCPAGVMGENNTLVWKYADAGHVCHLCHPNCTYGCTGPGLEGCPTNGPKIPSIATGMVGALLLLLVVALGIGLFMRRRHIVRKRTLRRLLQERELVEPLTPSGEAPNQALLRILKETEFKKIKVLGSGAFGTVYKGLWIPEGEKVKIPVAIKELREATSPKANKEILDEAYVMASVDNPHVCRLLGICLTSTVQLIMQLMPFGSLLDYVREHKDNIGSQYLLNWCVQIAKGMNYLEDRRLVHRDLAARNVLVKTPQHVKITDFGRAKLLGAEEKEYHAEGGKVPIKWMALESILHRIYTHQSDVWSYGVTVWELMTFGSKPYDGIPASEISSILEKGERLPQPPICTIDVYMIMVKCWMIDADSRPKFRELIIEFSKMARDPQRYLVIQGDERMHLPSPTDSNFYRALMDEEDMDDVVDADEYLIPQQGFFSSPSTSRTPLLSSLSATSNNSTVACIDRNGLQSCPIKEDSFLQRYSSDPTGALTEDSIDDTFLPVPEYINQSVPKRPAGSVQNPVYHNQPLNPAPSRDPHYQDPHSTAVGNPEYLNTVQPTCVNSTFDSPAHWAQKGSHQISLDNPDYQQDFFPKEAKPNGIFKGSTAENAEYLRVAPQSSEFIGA
Method in brief: as §1

[3] = molecular target: EGFR Del19/C797S (Homo sapiens, UniProt P00533, C797S/DEL746-750); experiment: Biochemical EGFR kinase inhibition assay (Lance Ultra TR-FRET), double mutant del19/C797S
EGFR Del19/C797S, sequence (P00533 with tags, fused parts or gaps DEL746-750/C797S): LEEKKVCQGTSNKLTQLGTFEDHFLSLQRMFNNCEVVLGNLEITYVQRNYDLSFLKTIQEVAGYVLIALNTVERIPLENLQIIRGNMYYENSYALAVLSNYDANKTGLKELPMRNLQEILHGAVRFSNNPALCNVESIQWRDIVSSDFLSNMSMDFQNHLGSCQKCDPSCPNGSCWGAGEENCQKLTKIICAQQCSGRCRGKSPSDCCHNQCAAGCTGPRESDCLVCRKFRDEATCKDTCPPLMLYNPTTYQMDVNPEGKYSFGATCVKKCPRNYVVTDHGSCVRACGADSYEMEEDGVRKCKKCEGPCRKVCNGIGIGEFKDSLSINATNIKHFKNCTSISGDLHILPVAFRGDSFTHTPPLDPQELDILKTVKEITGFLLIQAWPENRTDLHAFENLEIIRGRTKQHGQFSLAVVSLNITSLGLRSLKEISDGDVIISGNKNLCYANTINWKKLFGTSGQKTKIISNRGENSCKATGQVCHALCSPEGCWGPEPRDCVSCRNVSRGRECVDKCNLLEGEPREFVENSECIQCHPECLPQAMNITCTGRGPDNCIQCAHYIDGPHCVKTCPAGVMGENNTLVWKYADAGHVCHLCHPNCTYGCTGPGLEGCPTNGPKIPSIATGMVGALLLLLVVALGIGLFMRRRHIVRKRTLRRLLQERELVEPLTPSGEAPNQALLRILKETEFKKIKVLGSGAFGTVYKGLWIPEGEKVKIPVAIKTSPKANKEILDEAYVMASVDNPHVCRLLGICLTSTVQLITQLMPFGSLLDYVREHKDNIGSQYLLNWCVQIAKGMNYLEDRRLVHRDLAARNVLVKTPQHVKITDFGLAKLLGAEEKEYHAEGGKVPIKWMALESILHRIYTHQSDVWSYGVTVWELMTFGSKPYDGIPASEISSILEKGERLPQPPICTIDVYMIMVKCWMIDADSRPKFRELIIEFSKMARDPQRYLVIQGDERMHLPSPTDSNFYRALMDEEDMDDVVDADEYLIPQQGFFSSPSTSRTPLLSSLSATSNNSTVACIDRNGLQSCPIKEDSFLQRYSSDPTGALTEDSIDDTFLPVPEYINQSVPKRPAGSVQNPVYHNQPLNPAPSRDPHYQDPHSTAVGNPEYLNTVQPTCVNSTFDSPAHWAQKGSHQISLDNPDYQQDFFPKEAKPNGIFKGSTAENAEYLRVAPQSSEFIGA
Method in brief: as §1

[4] = molecular target: EGFR L858R/C797S (Homo sapiens, UniProt P00533, C797S/L858R); experiment: Biochemical EGFR kinase inhibition assay (Lance Ultra TR-FRET), double mutant L858R/C797S
Method in brief: as §1

[5] = molecular target: EGFR wildtype (WT) (Homo sapiens, UniProt P00533); experiment: Biochemical EGFR kinase inhibition assay (Lance Ultra TR-FRET), wildtype
EGFR wildtype (WT), sequence (P00533 25-1210): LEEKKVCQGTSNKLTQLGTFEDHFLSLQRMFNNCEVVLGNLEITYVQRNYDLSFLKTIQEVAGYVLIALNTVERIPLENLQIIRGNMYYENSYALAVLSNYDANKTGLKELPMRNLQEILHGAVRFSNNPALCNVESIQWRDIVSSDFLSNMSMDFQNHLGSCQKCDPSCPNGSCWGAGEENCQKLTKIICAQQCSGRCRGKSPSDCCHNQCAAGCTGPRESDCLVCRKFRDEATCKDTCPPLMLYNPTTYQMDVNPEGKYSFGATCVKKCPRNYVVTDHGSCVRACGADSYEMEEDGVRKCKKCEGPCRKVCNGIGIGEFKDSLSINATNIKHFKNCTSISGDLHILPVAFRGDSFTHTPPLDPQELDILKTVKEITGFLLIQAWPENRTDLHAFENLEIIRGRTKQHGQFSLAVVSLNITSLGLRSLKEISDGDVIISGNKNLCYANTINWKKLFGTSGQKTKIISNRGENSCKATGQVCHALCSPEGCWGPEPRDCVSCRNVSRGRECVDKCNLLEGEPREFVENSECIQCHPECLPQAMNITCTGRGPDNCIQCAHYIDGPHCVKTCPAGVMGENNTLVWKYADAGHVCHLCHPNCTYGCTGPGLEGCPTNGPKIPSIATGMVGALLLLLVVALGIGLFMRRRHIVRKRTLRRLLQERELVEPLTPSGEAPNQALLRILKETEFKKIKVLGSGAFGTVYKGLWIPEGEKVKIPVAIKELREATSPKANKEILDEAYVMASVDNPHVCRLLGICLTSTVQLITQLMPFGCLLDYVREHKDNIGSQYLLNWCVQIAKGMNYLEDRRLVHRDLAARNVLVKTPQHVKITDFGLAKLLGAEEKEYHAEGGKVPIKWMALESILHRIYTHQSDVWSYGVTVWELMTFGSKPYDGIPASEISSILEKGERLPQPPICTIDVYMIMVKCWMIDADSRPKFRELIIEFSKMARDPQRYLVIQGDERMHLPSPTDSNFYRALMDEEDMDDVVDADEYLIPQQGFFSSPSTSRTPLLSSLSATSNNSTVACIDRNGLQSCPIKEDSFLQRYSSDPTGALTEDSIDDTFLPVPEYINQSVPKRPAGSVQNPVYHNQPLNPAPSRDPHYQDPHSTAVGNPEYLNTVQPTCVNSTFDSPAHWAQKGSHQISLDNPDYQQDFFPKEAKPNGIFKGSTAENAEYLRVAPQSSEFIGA
Method in brief: as §1

[6] = ATP at Km, read-out: IC50 Del19/T790M/C797S (nM), Km ATP
[7] = IC50 Del19/T790M/C797S (nM), 100 μM ATP
[8] = ATP at Km, read-out: IC50 L858R/T790M/C797S (nM), Km ATP
[9] = IC50 L858R/T790M/C797S (nM), 100 μM ATP
[10] = ATP at Km, read-out: IC50 Del19/C797S (nM), Km ATP
[11] = IC50 Del19/C797S (nM), 100 μM ATP
[12] = ATP at Km, read-out: IC50 L858R/C797S (nM), Km ATP
[13] = IC50 L858R/C797S (nM), 100 μM ATP
[14] = ATP at Km, read-out: IC50 WT (nM), Km ATP

EGFR Del19/T790M/C797S, sequence (P00533 with tags, fused parts or gaps DEL746-750/T790M/C797S): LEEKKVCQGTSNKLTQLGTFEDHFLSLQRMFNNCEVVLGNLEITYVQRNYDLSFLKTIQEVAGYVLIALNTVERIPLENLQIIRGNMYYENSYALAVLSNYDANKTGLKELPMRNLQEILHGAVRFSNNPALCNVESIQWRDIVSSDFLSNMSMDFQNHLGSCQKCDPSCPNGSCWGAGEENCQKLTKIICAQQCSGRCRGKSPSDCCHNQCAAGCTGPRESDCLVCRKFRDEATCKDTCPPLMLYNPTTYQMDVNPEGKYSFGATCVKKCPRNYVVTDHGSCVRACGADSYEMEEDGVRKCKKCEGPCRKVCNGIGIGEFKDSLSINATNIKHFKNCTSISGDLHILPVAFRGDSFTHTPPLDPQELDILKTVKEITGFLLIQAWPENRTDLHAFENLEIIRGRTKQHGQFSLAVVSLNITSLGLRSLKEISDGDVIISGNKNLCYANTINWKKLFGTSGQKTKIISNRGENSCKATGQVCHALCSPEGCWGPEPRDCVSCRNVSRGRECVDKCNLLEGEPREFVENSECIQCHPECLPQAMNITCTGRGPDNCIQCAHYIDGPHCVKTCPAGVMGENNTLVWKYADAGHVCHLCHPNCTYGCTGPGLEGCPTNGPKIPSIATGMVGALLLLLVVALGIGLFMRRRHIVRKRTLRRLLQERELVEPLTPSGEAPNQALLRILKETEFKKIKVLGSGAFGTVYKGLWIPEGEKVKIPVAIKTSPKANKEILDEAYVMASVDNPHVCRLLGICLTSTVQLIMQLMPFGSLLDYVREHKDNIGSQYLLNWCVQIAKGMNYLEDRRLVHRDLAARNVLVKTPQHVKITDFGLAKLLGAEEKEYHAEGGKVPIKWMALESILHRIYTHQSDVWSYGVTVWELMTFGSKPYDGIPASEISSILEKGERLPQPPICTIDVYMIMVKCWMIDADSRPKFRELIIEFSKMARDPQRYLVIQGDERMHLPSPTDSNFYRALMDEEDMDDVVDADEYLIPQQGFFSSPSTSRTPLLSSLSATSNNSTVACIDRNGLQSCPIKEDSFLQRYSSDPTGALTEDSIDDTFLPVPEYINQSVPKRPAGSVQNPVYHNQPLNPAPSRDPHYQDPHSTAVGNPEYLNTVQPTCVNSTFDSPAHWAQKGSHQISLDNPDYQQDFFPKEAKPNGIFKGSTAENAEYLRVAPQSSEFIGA

Structure (SMILES)	IC50 [1, 6] [nM]	IC50 [1, 7] [nM]	IC50 [2, 8] [nM]	IC50 [2, 9] [nM]	IC50 [3, 10] [nM]	IC50 [3, 11] [nM]	IC50 [4, 12] [nM]	IC50 [4, 13] [nM]	IC50 [5, 14] [nM]	IC50 ([5]; IC50 WT (nM), 100 μM ATP) [nM]
O=S(=O)(C1CC1)n1cc(-c2nccc(Nc3cc(N[C@H]4CC[C@@H](CO)CC4)c(C#Cc4cnn(C(F)F)c4)cn3)n2)cn1 [Example 308, ((1s,4s)-4-((2-((2-(1-(Cyclopropylsulfonyl)-1H-pyrazol-4-yl)pyrimidin-4-yl)amino)-5-((1-(difluoromethyl)-1H-pyrazol-4-yl)ethynyl)pyridin-4-yl)amino)cyclohexyl)methanol]	4.8	3.5	3.2	2.3	1.6	2.8	3.7	75	39.4	> 10000
CN(C)C[C@H]1CC[C@@H](Nc2cc(Nc3ccnc(-c4cnn(S(=O)(=O)C5CC5)c4)n3)ncc2C#Cc2cnn(CC3CC3)c2)CC1 [Example 309, 5-((1-(Cyclopropylmethyl)-1H-pyrazol-4-yl)ethynyl)-N^2-(2-(1-(cyclopropylsulfonyl)-1H-pyrazol-4-yl)pyrimidin-4-yl)-N^4-((1s,4s)-4-((dimethylamino)methyl)cyclohexyl)pyridine-2,4-diamine]		1		1.1	2.4	3.1	1	43.8	24.3	7630
CN(C)C[C@H]1CC[C@@H](Nc2cc(Nc3ccnc(-c4cnn(S(=O)(=O)C5CC5)c4)n3)ncc2C#Cc2cnn(C(F)F)c2)CC1 [Example 310, N^2-(2-(1-(Cyclopropylsulfonyl)-1H-pyrazol-4-yl)pyrimidin-4-yl)-5-((1-(difluoromethyl)-1H-pyrazol-4-yl)ethynyl)-N^4-((1s,4s)-4-((dimethylamino)methyl)cyclohexyl)pyridine-2,4-diamine]		0.8		1.3	2.9	4.2	1.9	56.3	44	8840
CN(C)C[C@H]1CC[C@@H](Nc2cc(Nc3ccnc(-c4cnn(S(=O)(=O)C5CC5)c4)n3)ncc2C#Cc2cnn(CC(F)F)c2)CC1 [Example 311, N^2-(2-(1-(Cyclopropylsulfonyl)-1H-pyrazol-4-yl)pyrimidin-4-yl)-5-((1-(2,2-difluoroethyl)-1H-pyrazol-4-yl)ethynyl)-N^4-((1s,4s)-4-((dimethylamino)methyl)cyclohexyl)pyridine-2,4-diamine]		0.5		0.7	1.6	1.8	0.7	26	17.5	8550
CN(C)C[C@H]1CC[C@@H](Nc2cc(Nc3ccnc(-c4cnn(S(=O)(=O)C5CC5)c4)n3)ncc2C#Cc2cnn(C)c2)CC1 [Example 312, N^2-(2-(1-(Cyclopropylsulfonyl)-1H-pyrazol-4-yl)pyrimidin-4-yl)-N^4-((1s,4s)-4-((dimethylamino)methyl)cyclohexyl)-5-((1-methyl-1H-pyrazol-4-yl)ethynyl)pyridine-2,4-diamine]	0.3	0.3	0.1	0.4	1.1	2.4	1.1	12.2	9.6	6180
CN(C)C[C@H]1CC[C@@H](Nc2cc(Nc3ccnc(-c4cnn(S(=O)(=O)C5CC5)c4)n3)ncc2C#Cc2cnn(C3CC3)c2)CC1 [Example 313, 5-((1-Cyclopropyl-1H-pyrazol-4-yl)ethynyl)-N^2-(2-(1-(cyclopropylsulfonyl)-1H-pyrazol-4-yl)pyrimidin-4-yl)-N^4-((1s,4s)-4-((dimethylamino)methyl)cyclohexyl)pyridine-2,4-diamine]	0.3	0.4	0.1	0.3	1.2	2	0.9	9	10.7	4690
CN(C)C[C@H]1CC[C@@H](Nc2cc(Nc3ccnc(-c4cnn(S(=O)(=O)C5CC5)c4)n3)ncc2C#Cc2cnn(C(F)(F)F)c2)CC1 [Example 314, N^2-(2-(1-(Cyclopropylsulfonyl)-1H-pyrazol-4-yl)pyrimidin-4-yl)-N^4-((1s,4s)-4-((dimethylamino)methyl)cyclohexyl)-5-((1-(trifluoromethyl)-1H-pyrazol-4-yl)ethynyl)pyridine-2,4-diamine]	0.7	0.9	0.2	0.2	5.4	9.9	3.4	78.4	52.6	> 10000
CN(C)CC1(O)CCN(c2cc(Nc3ccnc(-c4cnn(S(=O)(=O)C5CC5)c4)n3)ncc2C#Cc2cnn(C)c2)CC1 [Example 315, 1-(2-((2-(1-(Cyclopropylsulfonyl)-1H-pyrazol-4-yl)pyrimidin-4-yl)amino)-5-((1-methyl-1H-pyrazol-4-yl)ethynyl)pyridin-4-yl)-4-((dimethylamino)methyl)piperidin-4-ol]		3.7		6.8		52.2		78.6		> 10000
CN(C)CC1(O)CCN(c2cc(Nc3ccnc(-c4cnn(S(=O)(=O)C5CC5)c4)n3)ncc2C#Cc2cnn(C3CC3)c2)CC1 [Example 316, 1-(5-((1-Cyclopropyl-1H-pyrazol-4-yl)ethynyl)-2-((2-(1-(cyclopropylsulfonyl)-1H-pyrazol-4-yl)pyrimidin-4-yl)amino)pyridin-4-yl)-4-((dimethylamino)methyl)piperidin-4-ol]		4.7		5.8		56.7		72.8		> 10000
CN(C)CC1(O)CCN(c2cc(Nc3ccnc(-c4cnn(S(=O)(=O)C5CC5)c4)n3)ncc2C#Cc2cnn(C(F)(F)F)c2)CC1 [Example 317, 1-(2-((2-(1-(Cyclopropylsulfonyl)-1H-pyrazol-4-yl)pyrimidin-4-yl)amino)-5-((1-(trifluoromethyl)-1H-pyrazol-4-yl)ethynyl)pyridin-4-yl)-4-((dimethylamino)methyl)piperidin-4-ol]		16.2		35.1		245		334		> 10000
CN1CCC2(CC1)CCN(c1cc(Nc3ccnc(-c4cnn(S(=O)(=O)C5CC5)c4)n3)ncc1C#Cc1cnn(C)c1)CC2 [Example 318, 2-(1-(Cyclopropylsulfonyl)-1H-pyrazol-4-yl)-N-(5-((1-methyl-1H-pyrazol-4-yl)ethynyl)-4-(9-methyl-3,9-diazaspiro[5.5]undecan-3-yl)pyridin-2-yl)pyrimidin-4-amine]		0.3		0.4		4.2		18.4		5990
CN1CCC2(CC1)CCN(c1cc(Nc3ccnc(-c4cnn(S(=O)(=O)C5CC5)c4)n3)ncc1C#Cc1cnn(C3CC3)c1)CC2 [Example 319, N-(5-((1-Cyclopropyl-1H-pyrazol-4-yl)ethynyl)-4-(9-methyl-3,9-diazaspiro[5.5]undecan-3-yl)pyridin-2-yl)-2-(1-(cyclopropylsulfonyl)-1H-pyrazol-4-yl)pyrimidin-4-amine]		0.3		0.3		3.2		17.1		4540
CN1CCC2(CC1)CCN(c1cc(Nc3ccnc(-c4cnn(S(=O)(=O)C5CC5)c4)n3)ncc1C#Cc1cnn(CC3CC3)c1)CC2 [Example 320, N-(5-((1-(Cyclopropylmethyl)-1H-pyrazol-4-yl)ethynyl)-4-(9-methyl-3,9-diazaspiro[5.5]undecan-3-yl)pyridin-2-yl)-2-(1-(cyclopropylsulfonyl)-1H-pyrazol-4-yl)pyrimidin-4-amine]		1		0.8		10.5		44		5670
CN1CCC2(CC1)CCN(c1cc(Nc3ccnc(-c4cnn(S(=O)(=O)C5CC5)c4)n3)ncc1C#Cc1cnn(C(F)F)c1)CC2 [Example 321, 2-(1-(Cyclopropylsulfonyl)-1H-pyrazol-4-yl)-N-(5-((1-(difluoromethyl)-1H-pyrazol-4-yl)ethynyl)-4-(9-methyl-3,9-diazaspiro[5.5]undecan-3-yl)pyridin-2-yl)pyrimidin-4-amine]		0.7		1.2		8		45.2		5850
CN1CCC2(CC1)CCN(c1cc(Nc3ccnc(-c4cnn(S(=O)(=O)C5CC5)c4)n3)ncc1C#Cc1cnn(CC(F)F)c1)CC2 [Example 322, 2-(1-(Cyclopropylsulfonyl)-1H-pyrazol-4-yl)-N-(5-((1-(2,2-difluoroethyl)-1H-pyrazol-4-yl)ethynyl)-4-(9-methyl-3,9-diazaspiro[5.5]undecan-3-yl)pyridin-2-yl)pyrimidin-4-amine]		0.5		0.4		6		18		4540
